Assay results as given in patent US8415358B2, “Pyrazine derivatives and their use as potassium channel modulators” (Neurosearch A/S, priority 2007, dated 2013).

system: not given; experiment: not given; conditions: not given

melting point [°C]	SMILES
157 to 158.9	Cc1cc(C)n(-c2cncc(Nc3ccc(Cl)cc3)n2)n1 [Compound 4, (4-Chloro-phenyl)-[6-(3,5-dimethyl-pyrazol-1-yl)-pyrazin-2-yl]-amine]
112 to 114	Cc1cc(C)n(-c2cnc(CN(C)C)c(Nc3ccc(Cl)cc3)n2)n1 [Compound 14.1, (4-Chloro-phenyl)-[3-dimethylaminomethyl-6-(3,5-dimethyl-pyrazol-1-yl)-pyrazin-2-yl]-amine]
105 to 108	COCc1ncc(-n2nc(C)cc2C)nc1Nc1ccc(Cl)cc1 [Compound 16.1, (4-Chloro-phenyl)-[6-(3,5-dimethyl-pyrazol-1-yl)-3-methoxymethyl-pyrazin-2-yl]-amine]
147 to 151	COCc1ncc(Nc2ccc(Cl)cc2)nc1-n1nc(C)cc1C [Compound 17.1]
228 to 231	Cc1cc(C)n(-c2cnc(/C=N/O)c(Nc3ccc(Cl)cc3)n2)n1 [Compound 20.1, 3-(4-Chloro-phenylamino)-5-(3,5-dimethyl-pyrazol-1-yl) -pyrazine-2-carbaldehyde oxime]
156 to 160	Cc1cc(C)n(-c2cnc(CN)c(Nc3ccc(Cl)cc3)n2)n1 [Compound 21.1, [3-Aminomethyl-6-(3,5-dimethyl-pyrazol-1-yl)-pyrazin-2-yl]-(4-chloro-phenyl)-amine]
122 to 124	CCNc1ncc(Nc2ccc(Cl)cc2)nc1-n1nc(C)cc1C [Compound 27.2, 5-(4-Chloro-phenylamino)-3-(3,5-dimethyl-pyrazol-1-yl)-2-ethylamino-pyrazine]

The remaining lines, values behind:

SMILES	melting point [°C]
Clc1ccc(Nc2cncc(-n3cccn3)n2)cc1 [Compound 3, (4-Chloro-phenyl)-(6-pyrazol-1-yl-pyrazin-2-yl)-amine]	155 to 157
Clc1ccc(Nc2cncc(-n3cc4ccccc4n3)n2)cc1 [Compound 3.1, (4-Chloro-phenyl)-(6-indazol-2-yl-pyrazin-2-yl)-amine]	249 to 252
Clc1ccc(Nc2cncc(-n3ncc4ccccc43)n2)cc1 [Compound 3.2, (4-Chloro-phenyl)-(6-indazol-1-yl-pyrazin-2-yl)-amine]	204 to 207
Cc1cccc(-c2cncc(Nc3ccc(Cl)cc3)n2)n1 [Compound 8.1, (4-Chloro-phenyl)-[6-(6-methyl-pyridin-2-yl)-pyrazin-2-yl]-amine]	186 to 188
CC(=O)NCc1ncc(-n2nc(C)cc2C)nc1Nc1ccc(Cl)cc1 [Compound 22.1, N-[3-(4-Chloro-phenylamino)-5-(3,5-dimethyl-pyrazol-1-yl)-pyrazin-2-ylmethyl]-acetamide]	228 to 230

target: T1, hSK3 channels (Homo sapiens, UniProt Q9UGI6); experiment: Whole-cell patch-clamp recording of ionic current through SK channels (subtype 3) in HEK293 cells expressing hSK3; format: cell-based; conditions: Stimulating Concentration required for increasing the baseline current by 100%, current at -75 mV, free Ca2+ 0.3-0.4 μM, room temperature
T1 construct: expressed in transfected cells; host or cells: HEK293
Description: The ionic current through small-conductance Ca^2+-activated K^+ channels (SK channels, subtype 3) is recorded using the whole-cell configuration of the patch-clamp technique.
HEK293 tissue culture cells expressing hSK3 channels were grown in DMEM (Dulbecco's Modified Eagle Medium) supplemented with 10% FCS (foetal calf serum) at 37° C. in 5% CO2. At 60-80% confluency, cells were harvested by trypsin treatment and seeded on cover slips.
Experiments are carried out on one of several patch-clamp set-ups. Cells plated on coverslips are placed in a 15 μl perfusion chamber (flowrate ˜1 ml/min) mounted on an IMT-2 microscope. The microscopes are placed on vibration-free tables in grounded Faraday cages. All experiments are performed at room temperature (20-22° C.). EPC-9 patch-clamp amplifiers (HEKA-electronics, Lambrect, Germany) are connected to Macintosh computers via ITC16 interfaces. Data are stored directly on the hard-disk and analysed by IGOR software (Wavemetrics, Lake Oswega, Oreg., USA).
The whole-cell configuration of the patch-clamp technique is applied. In short: The tip of a borosilicate pipette (resistance 2-4 MΩ) is gently placed on the cell membrane using remote control systems. Light suction results in the formation of a giga seal (pipette resistance increases to more than 1 GΩ) and the cell membrane underneath the pipette is then ruptured by more powerful suction. Cell capacitance is electronically compensated and the resistance between the pipette and the cell interior (the series resistance, Rs) is measured and compensated for. […]
The intracellular (pipette) solution contained: 154 mM KCl, 10 mM HEPES, 10 mM EGTA. Concentrations of CaCl2 and MgCl2 needed to obtain the desired free concentrations of Ca^2+ (0.3-0.4 μM, Mg^2+ always 1 mM) were calculated by EqCal software (Cambridge, UK) and added.
After establishment of the whole-cell configuration, voltage-ramps (normally −80 to +80 mV) are applied to the cell every 5 seconds from a holding potential of 0 mV. […] Active compounds are quantified by calculating the change in baseline current at −75 mV. […]

SMILES	SC100 [µM]
Cc1cc(C)n(-c2cncc(Nc3ccc(Cl)cc3)n2)n1 [Compound 4, (4-Chloro-phenyl)-[6-(3,5-dimethyl-pyrazol-1-yl)-pyrazin-2-yl]-amine]	0.25
Clc1ccc(Nc2cncc(-c3nccs3)n2)cc1 [Compound 8.4, (4-Chloro-phenyl)-(6-thiazol-2-yl-pyrazin-2-yl)-amine]	0.30
Cc1cc(C)n(-c2cnc(/C=N/O)c(Nc3ccc(Cl)cc3)n2)n1 [Compound 20.1, 3-(4-Chloro-phenylamino)-5-(3,5-dimethyl-pyrazol-1-yl) -pyrazine-2-carbaldehyde oxime]	0.075
